From patent publication US12503436B2, “Compounds and compositions for treating conditions associated with STING activity” (NOVARTIS PHARMA AG, priority 2021, dated 2025)

Target: STING (Homo sapiens, UniProt Q86WV6, G230A/H232R/R293Q/R71H)
Test: STING reporter assay in THP1-Dual KO-IFNAR2 cells (2′3′cGAMP stimulation, luciferase reporter)
Assay type: cell-based
Details: 15 μM 2′3′cGAMP stimulation, 24 h, read-out: Pharmaron, THP1_IFNAR2 STING 24 h Luci Normalized: GeoMean EC50
Outline: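 THP1-Dual KO-IFNAR2 cells (2×10E6 cells/mL) with compounds at 0.0017-100 μM final, stimulated with 15 μM final 2′3′cGAMP delivered by Lipofectamine 2000; 24 h at 37 °C. Luciferase in supernatant read with QUANTI-Luc Plus; EC50 derived from luminescence.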

STING, sequence (Q86WV6 whole entry R71H/G230A/H232R/R293Q): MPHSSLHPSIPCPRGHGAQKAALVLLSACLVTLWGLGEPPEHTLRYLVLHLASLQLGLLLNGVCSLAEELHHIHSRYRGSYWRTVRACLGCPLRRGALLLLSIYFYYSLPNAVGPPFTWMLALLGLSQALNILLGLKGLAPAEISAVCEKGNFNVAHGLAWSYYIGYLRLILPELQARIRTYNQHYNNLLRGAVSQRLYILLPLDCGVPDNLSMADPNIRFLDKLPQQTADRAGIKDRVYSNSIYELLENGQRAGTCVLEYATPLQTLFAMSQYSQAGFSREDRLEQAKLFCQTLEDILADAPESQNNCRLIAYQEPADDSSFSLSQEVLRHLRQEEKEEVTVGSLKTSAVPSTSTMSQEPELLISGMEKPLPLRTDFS

Row | SMILES | EC50 [nM]
1 | O=C(Nc1c[nH]c2ccc(O[C@H]3C[C@H](c4ccc(C(F)(F)F)cc4)C3)cc12)C1COC1 [Compound 518, N-(5-(trans-3-(4-(trifluoromethyl)phenyl)cyclobutoxy)-1H-indol-3-yl)oxetane-3-carboxamide] | 200 to 1000
2 | CC(=O)Nc1c[nH]c2ccc(CC(N)Cc3ccc(C(F)(F)F)cc3)cc12 (stereo not drawn) [Compound 517, N-(5-(2-amino-3-(4-(trifluoromethyl)phenyl)propyl)-1H-indol-3-yl)acetamide] | 5000 to 100000
3 | CC(=O)Nc1c[nH]c2ccc(CCO[C@@H]3C[C@@H]4CN(CC(F)(F)F)C[C@@H]4C3)cc12 [Compound 293] | 5000 to 100000
4 | CC(=O)Nc1c[nH]c2ccc(OC(C)Cc3ccc(C(F)(F)F)cc3)cc12 (single isomer, unassigned) [Compound 286, N-(5-((1-(4-(trifluoromethyl)phenyl)propan-2-yl)oxy)-1H-indol-3-yl)acetamide] | 1000 to 5000
5 | CC1(C(=O)Nc2c[nH]c3ccc(O[C@H]4C[C@@H](c5ccc(C(F)(F)F)nc5)C4)cc23)CC1 [Compound 579, 1-methyl-N-(5-(cis-3-(6-(trifluoromethyl)pyridin-3-yl)cyclobutoxy)-1H-indol-3-yl)cyclopropane-1-carboxamide] | 200 to 1000
6 | CC(=O)Nc1c[nH]c2ccc(OCC[C@@H]3[C@H]4CN(CC(F)(F)F)C[C@@H]34)cc12 [Compound 110, N-(5-(2-((1R,5S,6s)-3-(2,2,2-trifluoroethyl)-3-azabicyclo[3.1.0]hexan-6-yl)ethoxy)-1H-indol-3-yl)acetamide] | 200 to 1000
7 | CC(=O)Nc1c[nH]c2ccc(CCOc3ccc(Cl)cc3)cc12 [Compound 229, N-(5-(2-(4-chlorophenoxy)ethyl)-1H-indol-3-yl)acetamide] | 200 to 1000
8 | CC(=O)Nc1c[nH]c2ccc(CCOc3cnc(Cl)c(C)c3)cc12 [Compound 557, N-(5-(2-((6-chloro-5-methylpyridin-3-yl)oxy)ethyl)-1H-indol-3-yl)acetamide] | 1000 to 5000
9 | CC(=O)Nc1c[nH]c2ccc(CCC(C)(C)C3CCN(CC(F)(F)F)CC3)cc12 [Compound 275, N-(5-(3-methyl-3-(1-(2,2,2-trifluoroethyl)piperidin-4-yl)butyl)-1H-indol-3-yl)acetamide] | 1000 to 5000

More lines, now with the values ahead:

Row | EC50 [nM] | SMILES
10 | 40 to 200 | CC[C@@H](O)C(=O)Nc1c[nH]c2ccc(OCCc3ccc(C(F)(F)F)cc3)cc12 [Compound 431, (R)-2-hydroxy-N-(5-(4-(trifluoromethyl)phenethoxy)-1H-indol-3-yl)butanamide]
11 | 40 to 200 | CC(C)(O)CC(=O)Nc1c[nH]c2ccc(OCCc3ccc(C(F)(F)F)cc3)cc12 [Compound 519, 3-hydroxy-3-methyl-N-(5-(4-(trifluoromethyl)phenethoxy)-1H-indol-3-yl)butanamide]
12 | 200 to 1000 | COCCCC(=O)Nc1c[nH]c2ccc(OCCC3CCN(CC(F)(F)F)CC3)cc12 [Compound 121, 4-methoxy-N-(5-(2-(1-(2,2,2-trifluoroethyl)piperidin-4-yl)ethoxy)-1H-indol-3-yl)butanamide]
13 | 200 to 1000 | C[C@]1(C(=O)Nc2c[nH]c3ccc(OCc4ccc(C(F)(F)F)cc4)cc23)C[C@@H](O)C1 [Compound 414, cis-3-hydroxy-1-methyl-N-(5-((4-(trifluoromethyl)benzyl)oxy)-1H-indol-3-yl)cyclobutane-1-carboxamide]
14 | 40 to 200 | N#C[C@@H]1C[C@@H]1C(=O)Nc1c[nH]c2ccc(CCOc3ccc(C(F)(F)F)cc3)cc12 [Compound 582, (1S,2R)-2-cyano-N-(5-(2-(4-(trifluoromethyl)phenoxy)ethyl)-1H-indol-3-yl)cyclopropane-1-carboxamide]
15 | 40 to 200 | CC[C@@H](O)C(=O)Nc1c[nH]c2ccc(OCC[C@@H]3C[C@@H]4CN(CC(F)(F)F)C[C@@H]4C3)cc12 [Compound 522, (R)-2-hydroxy-N-(5-(2-((3aR,5r,6aS)-2-(2,2,2-trifluoroethyl)octahydrocyclopenta[c]pyrrol-5-yl)ethoxy)-1H-indol-3-yl)butanamide]
